According to ChEMBL document CHEMBL4477252, “Optimization of microtubule affinity regulating kinase (MARK) inhibitors with improved physical properties” (Bioorg Med Chem Lett, 2016):

target: T1, NUAK family SNF1-like kinase 1 (Homo sapiens, UniProt O60285); assay: Inhibition of full-length recombinant human His-tagged NUAK1 expressed in baculovirus expression system by Adapta assay
T1 sequence (O60285 whole entry): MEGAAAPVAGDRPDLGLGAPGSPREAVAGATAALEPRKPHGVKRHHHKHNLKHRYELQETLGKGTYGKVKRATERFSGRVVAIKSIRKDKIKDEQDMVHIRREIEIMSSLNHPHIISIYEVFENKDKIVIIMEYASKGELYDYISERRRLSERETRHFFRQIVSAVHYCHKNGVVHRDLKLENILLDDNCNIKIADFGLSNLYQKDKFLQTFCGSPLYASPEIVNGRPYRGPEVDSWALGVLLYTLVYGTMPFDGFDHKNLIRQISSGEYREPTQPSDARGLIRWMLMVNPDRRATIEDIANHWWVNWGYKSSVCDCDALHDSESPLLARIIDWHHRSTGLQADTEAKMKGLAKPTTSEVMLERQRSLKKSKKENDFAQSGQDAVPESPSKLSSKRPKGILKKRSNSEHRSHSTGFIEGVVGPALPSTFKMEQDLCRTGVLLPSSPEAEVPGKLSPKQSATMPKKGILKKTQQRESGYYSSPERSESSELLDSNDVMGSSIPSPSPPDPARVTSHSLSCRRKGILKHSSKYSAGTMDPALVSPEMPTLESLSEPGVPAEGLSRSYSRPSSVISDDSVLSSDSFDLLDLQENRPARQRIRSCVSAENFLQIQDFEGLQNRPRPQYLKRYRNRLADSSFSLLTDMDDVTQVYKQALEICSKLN

Point of comparison: `Cn1cc(-c2cnc3c(-c4csc(C(=O)NCC(F)(F)F)c4)cnn3c2)cn1`, IC50 19 nM. Against it:
- Cc1sc(C(=O)N[C@@H]2[C@H](N)CCCC2(F)F)cc1-c1cnn2cc(Cl)cnc12 — 11-fold higher, 200 nM
- O=C(NCC(F)(F)F)c1cc(-c2cnn3cc(-c4ccc(OCCN5CCCCC5)cc4)cnc23)cs1 — within 1.5-fold, 15 nM
- Cn1cc(-c2cnc3c(-c4csc(C(=O)N[C@@H]5CCCC[C@@H]5N)c4)cnn3c2)cn1 (racemic) — 4.5-fold lower, 4.2 nM

target: SRSF protein kinase 1 (Homo sapiens, UniProt Q96SB4); assay: Inhibition of full-length recombinant human His-tagged SRPK1 expressed in baculovirus expression system by Z'-LYTE assay
Sequence (Q96SB4 whole entry): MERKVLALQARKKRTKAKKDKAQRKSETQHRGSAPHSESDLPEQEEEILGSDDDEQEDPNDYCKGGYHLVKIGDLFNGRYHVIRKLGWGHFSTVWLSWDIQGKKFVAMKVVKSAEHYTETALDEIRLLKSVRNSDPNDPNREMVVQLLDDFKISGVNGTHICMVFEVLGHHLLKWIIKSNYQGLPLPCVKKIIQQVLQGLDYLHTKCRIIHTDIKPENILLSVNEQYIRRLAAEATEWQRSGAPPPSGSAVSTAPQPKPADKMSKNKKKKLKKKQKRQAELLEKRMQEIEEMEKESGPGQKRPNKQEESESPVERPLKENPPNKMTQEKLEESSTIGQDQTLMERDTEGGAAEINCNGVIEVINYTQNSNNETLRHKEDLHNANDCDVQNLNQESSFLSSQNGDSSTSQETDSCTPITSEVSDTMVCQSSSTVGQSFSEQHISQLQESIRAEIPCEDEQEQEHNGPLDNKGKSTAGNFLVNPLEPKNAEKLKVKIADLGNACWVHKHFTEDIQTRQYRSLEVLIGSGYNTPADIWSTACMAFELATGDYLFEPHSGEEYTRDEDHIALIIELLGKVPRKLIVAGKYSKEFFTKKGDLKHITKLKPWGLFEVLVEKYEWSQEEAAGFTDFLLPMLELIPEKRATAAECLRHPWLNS

Point of comparison: `Cn1cc(-c2cnc3c(-c4csc(C(=O)N[C@@H]5CCCC[C@@H]5N)c4)cnn3c2)cn1` (racemic), IC50 140 nM. Against it:
- Cn1cc(-c2cnc3c(-c4csc(C(=O)NCC(F)(F)F)c4)cnn3c2)cn1 — 200-fold higher, 28000 nM
- Cc1sc(C(=O)N[C@@H]2[C@H](N)CCCC2(F)F)cc1-c1cnn2cc(Cl)cnc12 — 86-fold higher, 12000 nM
- O=C(NCC(F)(F)F)c1cc(-c2cnn3cc(-c4ccc(OCCN5CCCCC5)cc4)cnc23)cs1 — higher, > 100000 nM

target: PI3-kinase p110-delta/p85-alpha (Homo sapiens, UniProt O00329); assay: Inhibition of full-length recombinant human His-tagged PIK3P110D/P85A expressed in baculovirus expression system by Adapta assay
Sequence (P27986 whole entry): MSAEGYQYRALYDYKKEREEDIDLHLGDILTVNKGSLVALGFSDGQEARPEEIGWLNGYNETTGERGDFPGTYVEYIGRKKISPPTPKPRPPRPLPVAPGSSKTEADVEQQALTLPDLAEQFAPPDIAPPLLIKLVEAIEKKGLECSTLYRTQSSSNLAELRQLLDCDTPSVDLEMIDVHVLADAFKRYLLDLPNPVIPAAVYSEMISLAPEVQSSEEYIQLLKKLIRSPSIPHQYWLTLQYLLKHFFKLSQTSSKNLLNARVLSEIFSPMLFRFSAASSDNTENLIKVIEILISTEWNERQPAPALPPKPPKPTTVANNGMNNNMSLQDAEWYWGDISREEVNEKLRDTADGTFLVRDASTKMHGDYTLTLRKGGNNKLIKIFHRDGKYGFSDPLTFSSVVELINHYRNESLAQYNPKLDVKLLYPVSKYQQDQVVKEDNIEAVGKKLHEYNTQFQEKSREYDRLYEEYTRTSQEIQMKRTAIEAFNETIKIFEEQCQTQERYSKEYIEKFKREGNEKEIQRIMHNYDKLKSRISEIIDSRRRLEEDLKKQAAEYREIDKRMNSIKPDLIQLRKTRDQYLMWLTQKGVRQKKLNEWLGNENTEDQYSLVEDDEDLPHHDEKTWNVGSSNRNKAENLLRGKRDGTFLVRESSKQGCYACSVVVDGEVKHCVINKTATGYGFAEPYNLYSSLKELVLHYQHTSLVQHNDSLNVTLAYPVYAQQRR
Sequence (O00329 whole entry): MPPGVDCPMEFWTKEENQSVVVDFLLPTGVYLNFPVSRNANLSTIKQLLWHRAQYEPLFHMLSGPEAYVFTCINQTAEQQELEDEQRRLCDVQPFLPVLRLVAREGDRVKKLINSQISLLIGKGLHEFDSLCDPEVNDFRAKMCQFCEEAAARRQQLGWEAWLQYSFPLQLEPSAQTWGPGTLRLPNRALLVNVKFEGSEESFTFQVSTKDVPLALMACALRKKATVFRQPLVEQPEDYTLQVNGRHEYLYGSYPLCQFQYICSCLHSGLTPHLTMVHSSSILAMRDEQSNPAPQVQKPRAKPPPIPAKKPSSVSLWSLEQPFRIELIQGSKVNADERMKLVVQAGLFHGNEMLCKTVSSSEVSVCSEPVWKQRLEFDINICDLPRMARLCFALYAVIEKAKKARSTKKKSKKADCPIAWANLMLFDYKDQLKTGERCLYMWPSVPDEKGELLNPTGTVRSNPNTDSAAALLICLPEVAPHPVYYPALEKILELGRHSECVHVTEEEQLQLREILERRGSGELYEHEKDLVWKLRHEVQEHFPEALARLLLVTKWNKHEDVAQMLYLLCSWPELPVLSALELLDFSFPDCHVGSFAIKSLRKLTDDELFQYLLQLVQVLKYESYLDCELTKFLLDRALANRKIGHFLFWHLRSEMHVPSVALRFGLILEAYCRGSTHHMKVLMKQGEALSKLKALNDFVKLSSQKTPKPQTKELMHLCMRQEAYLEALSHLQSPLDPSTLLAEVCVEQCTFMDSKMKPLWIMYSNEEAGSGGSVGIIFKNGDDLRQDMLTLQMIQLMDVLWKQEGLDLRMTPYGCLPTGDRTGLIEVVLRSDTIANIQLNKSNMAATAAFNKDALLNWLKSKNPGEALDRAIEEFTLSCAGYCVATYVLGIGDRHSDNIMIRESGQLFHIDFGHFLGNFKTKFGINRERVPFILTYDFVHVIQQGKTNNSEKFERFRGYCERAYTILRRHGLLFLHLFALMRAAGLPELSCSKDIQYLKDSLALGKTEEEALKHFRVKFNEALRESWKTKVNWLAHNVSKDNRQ

Point of comparison: `Cn1cc(-c2cnc3c(-c4csc(C(=O)NCC(F)(F)F)c4)cnn3c2)cn1`, IC50 1500 nM. Against it:
- Cc1sc(C(=O)N[C@@H]2[C@H](N)CCCC2(F)F)cc1-c1cnn2cc(Cl)cnc12 — higher, > 100000 nM
- O=C(NCC(F)(F)F)c1cc(-c2cnn3cc(-c4ccc(OCCN5CCCCC5)cc4)cnc23)cs1 — 37-fold higher, 55000 nM
- Cn1cc(-c2cnc3c(-c4csc(C(=O)N[C@@H]5CCCC[C@@H]5N)c4)cnn3c2)cn1 (racemic) — 2.2-fold higher, 3300 nM

target: T2, Inhibitor of nuclear factor kappa-B kinase subunit epsilon (Homo sapiens, UniProt Q14164); assay: Inhibition of full-length recombinant human GST-tagged IKK-epsilon expressed in baculovirus expression system by Z'-LYTE assay
T2 sequence (Q14164 whole entry): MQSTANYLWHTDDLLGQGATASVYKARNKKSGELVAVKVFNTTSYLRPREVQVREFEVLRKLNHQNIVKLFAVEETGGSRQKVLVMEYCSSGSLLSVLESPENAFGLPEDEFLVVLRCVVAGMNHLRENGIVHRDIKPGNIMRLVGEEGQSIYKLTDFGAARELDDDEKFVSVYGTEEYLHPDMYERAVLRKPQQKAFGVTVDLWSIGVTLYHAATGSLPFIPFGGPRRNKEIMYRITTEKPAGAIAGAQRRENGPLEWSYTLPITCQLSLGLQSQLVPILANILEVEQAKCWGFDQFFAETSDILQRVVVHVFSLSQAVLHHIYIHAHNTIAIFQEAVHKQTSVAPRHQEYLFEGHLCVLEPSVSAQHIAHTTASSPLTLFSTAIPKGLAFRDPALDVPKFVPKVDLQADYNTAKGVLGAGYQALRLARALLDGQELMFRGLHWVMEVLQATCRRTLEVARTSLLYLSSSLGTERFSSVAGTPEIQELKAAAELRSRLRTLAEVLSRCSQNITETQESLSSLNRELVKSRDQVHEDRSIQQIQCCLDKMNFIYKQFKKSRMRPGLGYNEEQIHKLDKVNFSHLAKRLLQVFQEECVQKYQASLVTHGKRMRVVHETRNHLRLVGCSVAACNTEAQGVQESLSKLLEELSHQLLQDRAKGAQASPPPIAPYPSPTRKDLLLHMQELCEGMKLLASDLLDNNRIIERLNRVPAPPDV

Point of comparison: `Cn1cc(-c2cnc3c(-c4csc(C(=O)N[C@@H]5CCCC[C@@H]5N)c4)cnn3c2)cn1` (racemic), IC50 7.1 nM. Against it:
- Cn1cc(-c2cnc3c(-c4csc(C(=O)NCC(F)(F)F)c4)cnn3c2)cn1 — not separable, < 10 nM
- Cc1sc(C(=O)N[C@@H]2[C@H](N)CCCC2(F)F)cc1-c1cnn2cc(Cl)cnc12 — 6.8-fold higher, 48 nM
- O=C(NCC(F)(F)F)c1cc(-c2cnn3cc(-c4ccc(OCCN5CCCCC5)cc4)cnc23)cs1 — not separable, < 10 nM

target: Sphingosine kinase 1 (Homo sapiens, UniProt Q9NYA1); assay: Inhibition of full-length recombinant human GST-tagged SPHK1 by Z'-LYTE assay
Sequence (Q9NYA1 whole entry): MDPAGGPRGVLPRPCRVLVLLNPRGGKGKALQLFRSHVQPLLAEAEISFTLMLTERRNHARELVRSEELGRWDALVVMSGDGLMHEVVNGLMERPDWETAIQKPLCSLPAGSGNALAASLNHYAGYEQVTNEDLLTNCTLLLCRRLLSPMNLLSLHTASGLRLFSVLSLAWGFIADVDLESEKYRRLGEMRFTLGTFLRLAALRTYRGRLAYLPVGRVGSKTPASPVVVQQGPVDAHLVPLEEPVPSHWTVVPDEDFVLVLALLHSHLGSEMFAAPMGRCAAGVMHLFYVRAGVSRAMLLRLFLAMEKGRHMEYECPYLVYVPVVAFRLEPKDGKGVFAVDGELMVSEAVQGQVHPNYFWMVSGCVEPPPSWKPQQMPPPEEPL

Point of comparison: `O=C(NCC(F)(F)F)c1cc(-c2cnn3cc(-c4ccc(OCCN5CCCCC5)cc4)cnc23)cs1`, IC50 32000 nM. Against it:
- Cn1cc(-c2cnc3c(-c4csc(C(=O)NCC(F)(F)F)c4)cnn3c2)cn1 — higher, > 100000 nM
- Cc1sc(C(=O)N[C@@H]2[C@H](N)CCCC2(F)F)cc1-c1cnn2cc(Cl)cnc12 — higher, > 100000 nM
- Cn1cc(-c2cnc3c(-c4csc(C(=O)N[C@@H]5CCCC[C@@H]5N)c4)cnn3c2)cn1 (racemic) — not separable, > 10000 nM

target: T3, Tyrosine-protein kinase JAK3 (Homo sapiens, UniProt P52333); assay: Inhibition of recombinant human GST-tagged JAK3 catalytic domain expressed in baculovirus expression system by Z'-LYTE assay
T3 sequence (P52333 whole entry): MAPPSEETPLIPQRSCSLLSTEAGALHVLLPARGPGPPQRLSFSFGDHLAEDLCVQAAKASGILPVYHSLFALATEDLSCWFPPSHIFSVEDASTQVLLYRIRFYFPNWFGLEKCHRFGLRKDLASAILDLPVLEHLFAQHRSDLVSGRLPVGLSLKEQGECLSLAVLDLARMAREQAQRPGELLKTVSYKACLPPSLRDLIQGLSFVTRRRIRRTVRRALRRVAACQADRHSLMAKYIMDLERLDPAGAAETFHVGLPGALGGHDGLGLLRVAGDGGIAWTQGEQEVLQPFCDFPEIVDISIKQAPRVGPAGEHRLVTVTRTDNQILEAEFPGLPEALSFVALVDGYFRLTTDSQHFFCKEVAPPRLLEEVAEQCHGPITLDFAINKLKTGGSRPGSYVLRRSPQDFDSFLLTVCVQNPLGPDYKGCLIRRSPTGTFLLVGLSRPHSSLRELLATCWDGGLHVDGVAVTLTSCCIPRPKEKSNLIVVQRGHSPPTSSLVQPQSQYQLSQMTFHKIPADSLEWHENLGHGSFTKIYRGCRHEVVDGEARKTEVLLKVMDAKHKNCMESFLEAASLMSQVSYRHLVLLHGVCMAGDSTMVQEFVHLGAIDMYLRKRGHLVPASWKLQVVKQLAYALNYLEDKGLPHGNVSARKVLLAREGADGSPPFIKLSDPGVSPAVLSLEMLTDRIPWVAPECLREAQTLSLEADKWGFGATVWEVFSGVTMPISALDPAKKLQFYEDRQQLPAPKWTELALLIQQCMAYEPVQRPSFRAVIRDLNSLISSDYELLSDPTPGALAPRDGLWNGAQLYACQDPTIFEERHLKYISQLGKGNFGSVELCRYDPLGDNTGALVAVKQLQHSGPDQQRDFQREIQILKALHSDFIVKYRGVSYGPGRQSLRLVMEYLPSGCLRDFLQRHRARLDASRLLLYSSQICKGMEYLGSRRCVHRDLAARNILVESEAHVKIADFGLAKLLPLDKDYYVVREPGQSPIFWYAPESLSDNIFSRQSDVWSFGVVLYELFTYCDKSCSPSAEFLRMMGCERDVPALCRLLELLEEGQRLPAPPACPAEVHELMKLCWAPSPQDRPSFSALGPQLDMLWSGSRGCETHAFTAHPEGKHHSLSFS

Point of comparison: `O=C(NCC(F)(F)F)c1cc(-c2cnn3cc(-c4ccc(OCCN5CCCCC5)cc4)cnc23)cs1`, IC50 280 nM. Against it:
- Cn1cc(-c2cnc3c(-c4csc(C(=O)NCC(F)(F)F)c4)cnn3c2)cn1 — 1.5-fold higher, 430 nM
- Cc1sc(C(=O)N[C@@H]2[C@H](N)CCCC2(F)F)cc1-c1cnn2cc(Cl)cnc12 — 4.6-fold higher, 1300 nM
- Cn1cc(-c2cnc3c(-c4csc(C(=O)N[C@@H]5CCCC[C@@H]5N)c4)cnn3c2)cn1 (racemic) — 8.5-fold lower, 33 nM
